Measurements published in US5912266A, “Beta2 integrin cell adhesion molecule inhibitors” (American Home Products Corporation, priority 1997, dated 1999).
Where two headings read alike, the source gives them in different places.

Key:
[1] = MTT cytotoxicity assay, HL60 cells; format: cell-based; conditions: human, hl60 cells, HL60, 30 min., read-out: % Inhibition MTT Reduction
Excerpt: (§1) This experiment describes the affect of asperlin on cellular respiration (mitochondrial activity) by measuring the reduction of the tetrazolium salt MTT to formazan crystals (Moseman, et al). This assay served as a control to ensure that the decrease in the fluorescence observed in Example I, Table I, was not the result of the fluorescent dye leaking from the cells due to disruption of the cell membrane. To address this issue, the mitochondrial activity of β2 and β1 integrin expressing cells in the presence of asperlin was quantitated using a commercially available MTT cytotoxicity kit (Promega No. G4100).
(§2) HL60 and U937 cells were purchased from the American Type Culture Collection (ATCC) and maintained in RPMI 1640 culture media containing 10% heat inactivated fetal bovine serum (refer to Example I, materials). HL60 cells were used between passages 20 and 30. HL60 cells were stimulated by a four day exposure to DMSO, as described in Example I, materials. Falcon round bottom tissue culture plates (No. 3077) were used for the experiment. All remaining reagents were supplied in Promega's MTT cytotoxicity kit (Catalog No. G4100).
(§3) The assay procedure described in the Promega MTT kit was used with the following changes.
(§4) Asperlin was solubilized in 100% DMSO at a concentration of 50 mg/ml. The 50 mg/ml asperlin stock was diluted to 400 μg/ml with culture media containing 5% fetal bovine serum (FBS). This solution was further diluted to 80 and 20 μg/ml with culture media supplemented with 5% FBS plus 2% DMSO. 50 μl of the 20 and 80 μg/ml asperlin solutions were added to wells of a sterile, round bottom 96 well assay plate. Control wells received 50 μl of culture media containing 5% FBS plus 2% DMSO. Duplicate assay wells were prepared such that U937 and HL60 cells could be evaluated on the same plate. The cell density of β1 integrin expressing U937, and β2 integrin expressing HL60 cell cultures were determined using a hemacytometer.
(§5) Cells were harvested by centrifuging for 5 minutes at 1000 rpm, room temperature, in a Sorvall RT600 bench-top centrifuge. The HL60 cell pellet was resuspended in fresh culture media at a concentration of 5×10^6 cells/ml. The U937 cell pellet was resuspended in fresh culture media at a concentration of 2.5×10^6 cells/ml. 2.5×10^5 β2 integrin expressing HL60 cells, contained in 50 μl, were added to wells of the assay plate using a multichannel pipettor. In duplicate assay wells, 1.25×10^5 β1 integrin expressing U937 cells, contained in 50 μl, were added to wells of the assay plate using a multichannel pipettor. Assay plates were incubated for either 30 minutes, 60 minutes, or 4 hours in a 37° C. 5% CO2, humidified incubator.
(§6) At the appropriate time point, 15 μl of MTT reagent, supplied in the Promega assay kit, was added to each well using a multichannel pipettor. Assay plates were incubated in the 37° C. incubator, as just described, for two hours. The MTT reduction reaction was quenched, and the visible formazan crystals were solubilized by adding exactly 100 μl of Promega's solubilization buffer to each well. […] The optical density (OD) of each well of the assay plate was determined using a microtiter plate reader (Flow Labs) set at a wavelength of 580 nm with a correction wavelength of 630 nm.
(§7) Replicate sample ODs were average. The percentage of inhibition of cellular respiration (mitochondrial activity) by asperlin was quantitated by the following equation: […]

HL60 cells = assay: MTT cytotoxicity assay, HL60 cells; format: cell-based; conditions: for Average Optical Density: HL60, 30 min.
Excerpt: as §1, §2, §3, §4, §5, §6, §7

CC(=O)OC1C=CC(=O)OC1C1OC1C [Asperlin, 6,7-Anhydro-2,3,8-trideoxy-D-galacto-oct-2-enoic acidδ-lactone 4-acetate]
cytotoxicity at 0.5 h ([1]; Asperlin 10 μg/mL): 8%
cytotoxicity at 0.5 h ([1]; Asperlin 40 μg/mL): 27%
Average Optical Density (HL60 cells; Asperlin 10 μg/mL): .819
Average Optical Density (HL60 cells; Asperlin 40 μg/mL): .649
Cytotoxicity (in words) (HL60 cells; β2 integrin expressing HL60 cells): not cytotoxic
